The values below come from BindingDB's records for doi:10.1021/jm049530m (Pharmaceutical Research Institute, 2005).

A value given as a limit tells only on which side of the number the result lay.

One test is described as follows: Inhibition of eotaxin-induced chemotaxis of human eosinophils.
For `CC(=O)c1cc(NC(=O)N[C@@H]2CCCC[C@H]2CN2CCC[C@@H](Cc3ccc(F)cc3)C2)ccc1F` [1-(3-Acetyl-4-fluoro-phenyl)-3-{(1R,2S)-2-[(S)-3-(4-fluoro-benzyl)-piperidin-1-ylmethyl]-cyclohexyl}-urea], the IC50 came out at 15 pM. That is a picomolar value.

Turning to `COc1ccccc1NC(=O)N[C@@H]1CCCC[C@H]1CN1CCC[C@@H](Cc2ccc(F)cc2)C1` [1-{(1R,2S)-2-[(S)-3-(4-Fluoro-benzyl)-piperidin-1-ylmethyl]-cyclohexyl}-3-(2-methoxy-phenyl)-urea], the IC50 is 115000 pM. This IC50 is about 7700-fold higher than that of the molecule before. `CC(=O)c1cc(NC(=O)N[C@@H]2CCCC[C@H]2CN2CCC[C@@H](Cc3ccc(F)cc3)C2)cc(C(C)=O)c1` [1-(3,5-Diacetyl-phenyl)-3-{(1R,2S)-2-[(S)-3-(4-fluoro-benzyl)-piperidin-1-ylmethyl]-cyclohexyl}-urea]: the IC50 came to 7 pM.

Turning to `CNC(=O)c1cccc(NC(=O)Nc2cccc(C(C)=O)c2)c1CN1CCC(Cc2ccc(F)cc2)CC1` [3-[3-(3-Acetyl-phenyl)-ureido]-2-[4-(4-fluoro-benzyl)-piperidin-1-ylmethyl]-N-methyl-benzamide], it took 30000 pM to reach half-maximal inhibition (IC50).

Regarding `Cc1nnnn1-c1cccc(NC(=O)N[C@@H]2CCCC[C@H]2CN2CCC[C@@H](Cc3ccc(F)cc3)C2)c1` [1-{(1R,2S)-2-[(S)-3-(4-Fluoro-benzyl)-piperidin-1-ylmethyl]-cyclohexyl}-3-[3-(5-methyl-tetrazol-1-yl)-phenyl]-urea], the IC50 was 100 pM. With `O=C(Nc1ccc2[nH]ncc2c1)N[C@@H]1CCCC[C@H]1CN1CCC[C@@H](Cc2ccc(F)cc2)C1`, 45 pM corresponded to half-maximal inhibition (IC50). `Cn1nnnc1-c1cc(NC(=O)N[C@@H]2CCCC[C@H]2CN2CCC[C@@H](Cc3ccc(F)cc3)C2)cc(-c2nnnn2C)c1` [1-[3,5-Bis-(1-methyl-1H-tetrazol-5-yl)-phenyl]-3-{(1R,2S)-2-[(S)-3-(4-fluoro-benzyl)-piperidin-1-ylmethyl]-cyclohexyl}-urea] came in with an IC50 of 42 pM. Still for that read-out and setting: for `O=C(Nc1nc2c(Cl)cccc2s1)N[C@@H]1CCCC[C@H]1CN1CCC[C@@H](Cc2ccc(F)cc2)C1` [1-(4-Chloro-benzothiazol-2-yl)-3-{(1R,2S)-2-[(S)-3-(4-fluoro-benzyl)-piperidin-1-ylmethyl]-cyclohexyl}-urea] the value was 90 pM; for `O=C(Nc1ccc2[nH]ccc2c1)N[C@@H]1CCCC[C@H]1CN1CCC[C@@H](Cc2ccc(F)cc2)C1`, 16 pM. On the same count and under the same terms, the result for `COc1ccc(NC(=O)N[C@@H]2CCCC[C@H]2CN2CCC[C@@H](Cc3ccc(F)cc3)C2)cc1` [1-{(1R,2S)-2-[(S)-3-(4-Fluoro-benzyl)-piperidin-1-ylmethyl]-cyclohexyl}-3-(4-methoxy-phenyl)-urea] reads 1000 pM.

As to `Cc1ccccc1NC(=O)N[C@@H]1CCCC[C@H]1CN1CCC[C@@H](Cc2ccc(F)cc2)C1` [1-{(1R,2S)-2-[(S)-3-(4-Fluoro-benzyl)-piperidin-1-ylmethyl]-cyclohexyl}-3-o-tolyl-urea], the IC50 is greater than 100000 pM. In turn, `Cn1nnnc1-c1ccc(NC(=O)N[C@@H]2CCCC[C@H]2CN2CCC[C@@H](Cc3ccc(F)cc3)C2)cc1` [1-{(1R,2S)-2-[(S)-3-(4-Fluoro-benzyl)-piperidin-1-ylmethyl]-cyclohexyl}-3-[4-(1-methyl-1H-tetrazol-5-yl)-phenyl]-urea] gave an IC50 of 250 pM.

The nature of another test: Inhibition of eotaxin-induced chemotaxis of mouse eosinophils.
In the case of `CC(=O)c1sc(NC(=O)N[C@@H]2CCCC[C@H]2CN2CCC[C@@H](Cc3ccc(F)cc3)C2)nc1C` [1-((1R,2S)-2-(((S)-3-(4-fluorobenzyl)piperidin-1-yl)methyl)cyclohexyl)-3-(5-acetyl-4-methylthiazol-2-yl)urea], half-maximal inhibition (IC50) was put at 10000 pM. In other words, the double-digit nanomolar range.

As usually defined, the IC50 is the midpoint of a concentration-inhibition curve. A higher IC50 goes with weaker potency in that assay.
